Reference: patent US20240398822A1, “METHODS AND COMPOSITIONS FOR TREATING AND MANAGING ALZHEIMER'S DISEASE” (Pharmatrophix, Inc., priority 2021, published 2024)

Tests used:
YKL-40 = test: Phase IIa CSF glial biomarker YKL-40; type: in vivo, human
Description: (§1) CSF samples were obtained at screening Visit and final Visit via lumbar puncture to determine levels of tau, p-tau, Aβ40, Aβ42 and AChE activity as an initial set of CSF biomarkers. Aliquots of CSF were made available for emerging CSF biomarker methods such as measurement of additional biomarkers including neurofilaments light chain, neurogranin, SNAP-25, synaptotagmin, YKL-40, TREM2, tau oligomers and for measurement of drug level in selected patients based on the time period between last dose of drug and CSF sampling (FIG. 25 and FIG. 58).
Baseline CSF samples are obtained prior to administration via lumbar puncture. These samples are used to determine levels of tau, p-tau, Aβ40, Aβ42, AChE, neurofilament light chain, SNAP-25, synaptotagmin-1, neurogranin, sTREM, and YKL-40. Aliquots of CSF are also made available for emerging CSF biomarker methods such as measurement of tau oligomers and for measurement of drug level in selected patients based on time period between last dose of the salt of Formula (II) and CSF sampling. […] Many of these biomarkers can also be measured in blood or plasma. The change in values over the time period from pre-treatment to post-treatment are of particular importance. […] Absolute levels at single time points of neurofilament light chain, SNAP-25, synaptotagmin-1, neurogranin, sTREM, and YKL-40 in CSF or blood or plasma are of less value given differences in assay techniques and wide variation in absolute levels within normal subjects and within and across AD subjects. In contrast, absolute levels of Aβ42 and 40 at baseline are useful biomarkers indicating the presence of amyloid pathology as low levels of Aβ42 and 40 at a given time point are consistent with amyloid pathology.

[1] = system: healthy elderly volunteers; test: Phase I (1b) safety and tolerability, 600 mg b.i.d. for 10 days
Experimental: Trial specific stopping rules were set to protect the trial subjects. Dosing would have been stopped for all subjects and the trial terminated if any of the stopping rules had occurred.
15 healthy adults were screened within three weeks prior to the baseline visit. Following 5 screening failures, 10 healthy adults, 5 aged 18-64 years and 5 aged 65-84 years were enrolled.
A phase 1b studied was conducted in 10 elderly normal subjects for the purpose of obtaining plasma and CSF coordinated drug levels and to further assess safety at a dose of 600 mg bid over a 10-day period. The study was double-blinded and placebo controlled with 8 subjects receiving drug.

[2] = system: amyloid based mice (L/S-APP) or tau based mice (PS19); settings: published mouse studies, cited from earlier work
[3] = Phase I (1b) cerebrospinal fluid (CSF) levels; type: in vivo; settings: human, day 10, 600 mg b.i.d. oral, 8 subjects, read-out: Cmax in cerebrospinal fluid (CSF), arithmetic mean
CSF biomarkers = test: Phase IIa CSF biomarkers, whole panel; type: in vivo, human
Description: as §1
Baseline CSF samples are obtained prior to administration via lumbar puncture. These samples are used to determine levels of tau, p-tau, Aβ40, Aβ42, AChE, neurofilament light chain, SNAP-25, synaptotagmin-1, neurogranin, sTREM, and YKL-40. Aliquots of CSF are also made available for emerging CSF biomarker methods such as measurement of tau oligomers and for measurement of drug level in selected patients based on time period between last dose of the salt of Formula (II) and CSF sampling. […] Many of these biomarkers can also be measured in blood or plasma. The change in values over the time period from pre-treatment to post-treatment are of particular importance. […]

[4] = system: patients with mild to moderate Alzheimer's disease; test: Phase IIa cognitive testing (ADAS-cog, MMSE); type: in vivo, human
Experimental: Exploratory outcome evaluations involved the assessment of cognitive and clinical function (Table 1). […] Items from the Neurological Testing Battery (NTB), together with the ADAS-Cog 13, Spatial Navigation Test (AMUNET) were performed at Baseline, Week 12 and Week 26 (Visits 2, 4 and 5). While the MMSE was used primarily as a screening and baseline disease staging tool, its repeated administration at Week 26 provided an additional exploratory cognitive outcome measure. The Geriatric Depression Scale (GDS) was assessed at each Visit (Screening, Baseline, Week 4, 12, 26: Visits 1-5) and the Clinical Global Impression test (CGI) with Severity was assessed at Screening (Visit 1) and then the Improvement was subsequently assessed at Weeks 12 and 26 (Visits 4 and 5). For each test, whether categorical or numeric, all raw scores were considered interval in nature. The change from Screening (Week −8) or Baseline (Week 0) was therefore be derived for each patient. Actual values at each Visit and Changes from Screening/Baseline were summarized.
Alzheimer's Disease Assessment Scale—13 items (total score=85) is used as a parameter for exploratory outcome analysis. ADAS-cog is a psychometric instrument designed to evaluate the severity of cognitive and non-cognitive behavioral dysfunctions characteristic of people with AD. The cognitive portion assesses memory, language and praxis functions. Most items are rated on a scale of 0 to 5, where 0 indicates no impairment and 1 to 5 indicates very mild (1), mild (2), moderate (3), moderately severe (4) or severe impairment (5) respectively. Other items are rated on the presence or absence of a characteristic number of errors or severity of errors. The total scores from the ADAS-cog sub-scales range from 0 (no impairment) to 85 (errors in all sub-tests).
A positive (i.e. increasing) change of the score indicates cognitive worsening. In a meta-analysis model of 52 Alzheimer's Disease trials involving 19,972 mild-moderate disease subjects, a spontaneous decline in performance corresponding to an increase in ADAS-cog score of 5.5 points over one year, pointing to an expected average increase in score of 2.75 points over a 6-month period.
ADAS-Cog was assessed at Visits 2, 4 and 5, as well as at the early discontinuation Visit, if applicable.
While the MMSE was used primarily as a screening and baseline disease-staging tool, its administration at Week 26 provided an additional exploratory cognitive outcome measure.
Mini Mental Status Exam (MMSE). The MMSE can be used by a physician to evaluate a patient's condition over the course of administration. A baseline value prior to administration of a salt of Formula (II) can serve as a basis for baseline disease stage and also for the assessment of the effect of treatment on slowing loss of cognitive function. The expected decline in MMSE over a six month period generally ranges 1-3 points out of the total of 30 points possible in the MMSE test.

[5] = Phase 1 SAD/MAD pharmacokinetics; type: in vivo; settings: in vivo
Description: The phase 1 study was placebo controlled and double blinded and included 52 subjects in SAD studies and 20 subjects in MAD studies.

[6] = 600 mg b.i.d. oral, 10 days, 8 subjects
[7] = non-serious AE, 600 mg b.i.d. oral, 10 days

## CC[C@H](C)[C@H](N)C(=O)NCCN1CCOCC1 [LM11A-31-BHS, Tris[(2S,3S)-2-amino-3-methyl-N-(2-morpholinoethyl)pentanamide] tetra(monohydrogensulfate), monosulfate]
YKL-40; 200 and 400 mg doses
  CSF YKL40 significant increase seen with placebo, drug dose analysis: no longer present at the 200 and 400 mg doses
YKL-40; annual percent change (APC), 6-month trial period
  drug effect in slowing or inhibiting the pathological glial response (YKL-40), younger (<72 years) versus older (>=72 years): greater than that found in the older group
YKL-40; combined drug group, difference between placebo and drug groups p=0.03
  CSF YKL-40 increase in the drug group: This increase was not detected in the drug group
[1]; 600 mg BID up to ten days of treatment
  safety and tolerability in repeated dose schedule: support the safety and tolerability
[1]; 600 mg b.i.d. oral, 10 days
  number of deaths (all causes): 0
  number of deaths resulting from adverse events: 0
  serious adverse event Headache, occurrences causally related to treatment/all: 0/1
[1]; [6]
  drug related serious adverse events: 0 drug related adverse events
  mild drug related adverse events: 4 drug related adverse events
  moderate drug related adverse events: 0 drug related adverse events
  severe drug related adverse events: 0 drug related adverse events
[1]; [7]
  Abdominal pain, occurrences (all): 1
  Arthralgia, occurrences (all): 3
  Diarrhea, occurrences (all): 1
  Dry eye, occurrences (all): 0
  Flatulence, occurrences (all): 3
  Gamma-glutamyltransferase increased, occurrences (all): 1
  Headache, occurrences (all): 7
  Oropharyngeal pain, occurrences (all): 0
  Polyuria, occurrences (all): 1
  Presyncope, occurrences (all): 0
[1]; phase 1b, 600 mg bid, 10-day period, 8 subjects receiving drug
  alterations in physical examination, vital signs and ECG recordings: no clinically relevant alterations
[1]; phase 1b, 600 mg bid, 10 days, neither clinical relevance nor relationship with the study drug
  changes in haematological and biochemistry parameters: Minimal changes
[2]; GFAP and CD68 staining
  effect on pathological tau, neurites, synapses and spines, astrocytes and microglia: inhibits levels of pathological tau, loss of neurites, loss of synapses and spines, activation of astrocytes (GFAP staining is less) and activation of microglia (CD68 staining is less)
[2]
  effect on synaptic function (LTP signal, EPSP slope in hippocampal slices): corrects synaptic function
[3]
  Cmax: 56 ng/mL
CSF biomarkers; <72 years versus >=72 years
  drug effect across all CSF biomarkers by age group: the drug effect was in general greater in the younger versus older group
CSF biomarkers; CSF, pre-treatment to post-treatment
  effect on biomarkers indicating neuronal degeneration, gliosis and neuro-inflammation: ability to slow progression of increase of biomarkers indicating neuronal degeneration, gliosis and neuro-inflammation
[4]; 200 mg bid and 400 mg bid versus placebo
  ADAS-cog-11, drug dose analysis: trend for decreased worsening of cognitive scores at both doses
[4]; 200 and 400 mg groups versus placebo
  ADAS-cog-13, drug dose analysis: nominal decrease in the increase in score
[4]; at 6 months, phase 2a study
  slowing trend in clinical outcome measures: 30-45%
[4]; combined drug group, 26 weeks, does not reach statistical significance
  worsening of ADAS-13 and -11 scores, drug versus placebo: trend in slowing the worsening
[4]; drug versus placebo
  directionality of slowing progression of worsening in ADAS-cog and MMSE: favorable effect of drug treatment
[4]; effects at neither dose reached statistical significance
  trends for slower progression of ADAS-cog and MMSE scores, dose comparison: greater at the 400 compared to 200 mg doses
[5]; human
  food effect: fed subjects having a higher LM11A-31 parent exposure than fasted subjects
  time to reach steady state upon multiple dosing: approximately 5 days post dose
[5]
  gender difference in exposure: female subjects having a greater exposure than males
[5]; po
  pharmacokinetics after single oral doses: linear pharmacokinetics
